From US20090031435A1, “SMA Therapy and Cell Based Assay” (priority 2002, published 2009)

Tests used:
[1] = system: SMN2-luciferase reporter construct; assay: SMN2-luciferase splicing reporter luminescence assay in C33A cells; type: cell-based, human; conditions: for SMN2 luminescence/SMN1 luminescence: highest point of the curve of increase in SMN2-luciferase luminescence minus increase in SMN1-luciferase luminescence (treated/control), dilution series max 10 uM; for luminescence from the SMN2-luciferase reporter construct: screen at 10 μM, ~48 hr
Experimental: (§1) In a screen to identify compounds capable of enhancing the inclusion of exon 7 in SMN2 mRNA, cells of the human cervical carcinoma cell line C33A (ATCC#HTB-31) were stably transformed with an SMN fragment/luciferase reporter gene construct that incorporated exons 6-8 of SMN1 or SMN2 for use in a high-throughput screening assay. These cells were cultured in Dulbecco's Modified Eagle's Medium (DMEM) with 10% Fetal Bovine Serum (Sigma F 2442), 50 units/mL penicillin 50 μg/mL streptomycin sulfate and 400 mg/L G418 (i.e. Geneticin, Gibco, cat. No. 11811-031). The assay medium used to perform the luciferase assay was identical to the growth medium except the G418 selection agent was omitted. To perform the luciferase assay, a single reagent (25 mM glycylglycine, 15 mM magnesium sulfate, 4 mM EGTA, adjusted to pH 7.85, to which is added 10 μM D-luciferin (Sigma L9504), 10 mM dithiothreitol (DTT, Roche Molecular Biochemicals 100034), 2 mM adenosine 5′-triphosphate (ATP, Sigma A7699), 50 μM CoenzymeA, sodium salt (Sigma C 3144) and 1.5% Triton X-100) was used to lyse the cells and to initiate the luciferase reaction.
(§2) Using this cell-based luminescence assay, a screen was performed to identify compounds that modulate SMN splicing. Stably transfected C33A cells (˜35-40 M cells/flask) were cultured, then removed from T-175 culture flasks with 3 mL trypsin, and quenched with 7 mL assay medium. The cells were spun down and re-suspended in assay medium to a concentration of ˜200,000 cells/mL. Cells were immediately seeded in 384-well assay plates (Nalge Nunc white plates, #164610) 57 μL/well for a cell density of 11,000 cells/well. Compounds from a library obtained from the National Institute of Neurological Disorders and Stroke (NINDS) were added to the cells to a final concentration of 10 μM (diluted with assay medium by 1000× from the 10 mM stock solution in DMSO). The cells were incubated with the test compounds at 37° C. for ˜48 hr. A Zymark Sciclone ALH was used for cell seeding and compound addition. After incubation, the assay plates were cooled to room temperature for ˜10-60 minutes. The medium and compounds were aspirated from the wells, followed by 6 rinse/aspirate cycles with a PBS solution. 53 μL of the luciferase assay reagent was added and the plate was immediately transferred to a luminescence plate reader. The plate was shaken for 30 minutes prior to reading. The plate processing steps were performed on an integrated Packard Minitrak/Sidetrak platereader.
(§3) To analyze the data, the dark count background was first subtracted from all luminescence readings. The signal from each compound treated well was divided by the average of 48 control wells on the same 384-well plate. Each compound library plate was tested in triplicate with each of the two cell lines, and the entire assay was repeated on two separate occasions, yielding six readings for each compound for each cell line. The highest and lowest of the six normalized readings were dropped and the remaining four readings averaged. These average values of compound-treated luminescence versus control luminescence are denoted “Xnorm(y)”, where X indicates the cell line, SMN1-luciferase or SMN2-luciferase, and y represents the compound. The difference of [SMN2norm(y)−SMN1norm(y)] measures the selective change in SMN2-luciferase expression versus change in SMN1 luciferase production upon treatment with compound y. This is the final score that is output.
(§4) These dilutions were created with a Zymark Sciclone ALH Z-8. Once created, the assay was performed as described for the screening process. Concentrations required to achieve 50% of the maximally achievable effect for each compound (“EC50”) were calculated using Xlfit (IDBS).

SMN1-luciferase control = SMN1-luciferase control splicing reporter luminescence assay in C33A cells; type: cell-based, human
Experimental: as §1, §2, §3, §4

Row | Compound | Effect on splicing of SMN2-luciferase in C33A cells [1] | Effect on splicing of SMN1-luciferase control in C33A cells (SMN1-luciferase control) | SMN2 luminescence/SMN1 luminescence [1] | luminescence from the SMN2-luciferase reporter construct [1]
1 | COc1ccc2c(c1)c(CC(=O)O)c(C)n2C(=O)c1ccc(Cl)cc1 [1-(4-Chlorobenzoyl)-5-methoxy-2-methyl-3-indoleacetic acid] | None | None |  | 
2 | CN1C(=O)c2ccc(-c3ccccc3)cc2C1(O)C(C)(C)C (stereo not drawn) [1-tert-butyl-1-hydroxy-2-methyl-6-phenyl-3-isoindolinone] | None |  |  | 
3 | CC(O)c1ccc(N2Cc3ccccc3C2=O)cc1 (stereo not drawn) [1H-isoindol-1-one, 2,3-dihydro-2-[4-91-hydroxyethyl)phenyl]] | Increased | Increased |  | 
4 | O=C1c2ccccc2CN1c1ccccc1 [1H-isoindol-1-one, 2,3-dihydro-2-phenyl] | None | None |  | 
5 | O=C1NCc2ccccc21 [1H-isoindol-1-one, 2,3-dihydro-] | None | None |  | 
6 | O=C(O)CCC(C(=O)O)N1Cc2ccccc2C1=O (stereo not drawn) [2-Phthalimidino-glutaric acid] | None | None |  | 
7 | O=C(O)C(Cc1ccccc1)N1Cc2ccccc2C1=O (stereo not drawn) [2H-isoindol-2-acetic acid, 1,3-dihydro-1-oxo-alpha-(phenylmethyl)- . . .] | None | None |  | 
8 | O=C(O)CCCN1C(=O)c2ccccc2C1=O [2H-isoindol-2-butanoic, 1,3-dihydro-1,3-dioxo] | None | None |  | 
9 | Cc1ccc(C(CC(=O)O)N2Cc3ccccc3C2=O)cc1 (stereo not drawn) [2H-isoindol-2-propanoic acid, 1,3-dihydro-beta-(4-methylphenyl)-1-oxo] | None | None |  | 
10 | CCC(CC)(CC)C1(O)c2ccccc2C(=O)N1C (stereo not drawn) [3-(1,1-diethylpropyl)-3-hydroxy-2-methyl-1-isoindolinone] | None |  |  | 
11 | CN1C(=O)c2ccccc2C1(O)C(C)(c1ccccc1)c1ccccc1 (stereo not drawn) [3-(1,1-diphenylethyl)-3-hydroxy-2-methyl-1-isoindolinone] | None |  |  | 
12 | Cc1ccc(N2C(=O)c3ccccc3C2C(=O)c2ccc(O)cc2O)cc1 (stereo not drawn) [3-(2,4-hydroxybenzoyl)-2-(4-methylphenyl)-1-isoindolinone] | None |  |  | 
13 | Cc1ccc(N2C(=O)c3ccccc3C2C(=O)c2cc(O)ccc2O)cc1 (stereo not drawn) [3-(2,5-hydroxybenzoyl)-2-(4-methylphenyl)-1-isoindolinone] | None |  |  | 
14 | Cc1ccc(N2C(=O)c3ccccc3C2C(=O)c2cc(C)ccc2O)cc1 (stereo not drawn) [3-(2-hydroxy-5-methylbenzoyl)-2-(4-methylphenyl)-1-isoindolinone] | None |  |  | 
15 | O=C1c2ccccc2C(O)(c2ccc(Cl)cc2)N1OC1CCCCO1 (stereo not drawn) [3-(4-chlorophenyl)-3-hydroxy-2-(tetrahydropyran-2-yloxy)-1-isoindolinone] | None |  |  | 
16 | CC[C@@]1(O)C(=O)OCc2c1cc1n(c2=O)Cc2cc3ccccc3nc2-1 [Camptothecin, camptothecin] |  |  | 0.4 | increased luminescence
17 | CO[C@@]1(NC(=O)Cc2cccs2)C(=O)N2C(C(=O)O)=C(COC(N)=O)CS[C@@H]21 [Cefoxitin sodium, cefoxitin sodium] |  |  | 0.3 | increased luminescence
18 | O=C1C=C2C(=CCOC2O)O1 (stereo not drawn) [Patulin, patulin] |  |  | 0.7 | increased luminescence
19 | [O-][n+]1ccccc1[S-].[O-][n+]1ccccc1[S-].[Zn+2] [Pyrithione zinc, pyrithione zinc] |  |  | 1.0 | increased luminescence
20 | CC(=O)Nc1ccc(O)cc1 [acetominophen] |  |  |  | None of these compounds resulted in increased luminescence
21 | NC12CC3CC(CC(C3)C1)C2 [amantadine] |  |  | 0.3 | increased luminescence
22 | CC(=O)Oc1ccccc1C(=O)O [aspirin] |  |  |  | None of these compounds resulted in increased luminescence
23 | CC(C(=O)O)c1cccc(Oc2ccccc2)c1 (stereo not drawn) [fenoprofen] |  |  |  | None of these compounds resulted in increased luminescence
24 | CC(C(=O)O)c1ccc(-c2ccccc2)c(F)c1 (stereo not drawn) [flurbiprofen] |  |  |  | None of these compounds resulted in increased luminescence
25 | CC(C)Cc1ccc(C(C)C(=O)O)cc1 (stereo not drawn) [ibuprofen] |  |  |  | None of these compounds resulted in increased luminescence
26 | CC(C(=O)O)c1cccc(C(=O)c2ccccc2)c1 (stereo not drawn) [ketoprofen] |  |  |  | None of these compounds resulted in increased luminescence
27 | CC(C(=O)O)c1ccc(C(=O)c2cccs2)cc1 (stereo not drawn) [suprofen] |  |  |  | None of these compounds resulted in increased luminescence
28 | Methyl 2-[4-(1,3-dioxo-2,3-dihydro-1H-isoindol-2-yl)-3-me . . . | None |  |  | 
29 | Methyl 2-[4-(1,3-dioxo-2,3-dihydro-1H-isoindol-2-yl)phenyl . . . | None |  |  | 
